Experimental data reported in ChEMBL document CHEMBL5346941, “Design, synthesis and evaluation of novel monoamine oxidase B (MAO-B) inhibitors with improved pharmacokinetic properties for Parkinson's disease” (Eur J Med Chem, 2023).

Experiments:
[1] = target: T1, Amine oxidase [flavin-containing] A (Homo sapiens, UniProt P21397); test: Inhibition of recombinant human MAO-A expressed in Sf9 cells using […] as substrate preincubated for 15 mins followed by substrate addition and measured after 60 mins by luciferin based luminescence analysis
T1 sequence (P21397 whole entry): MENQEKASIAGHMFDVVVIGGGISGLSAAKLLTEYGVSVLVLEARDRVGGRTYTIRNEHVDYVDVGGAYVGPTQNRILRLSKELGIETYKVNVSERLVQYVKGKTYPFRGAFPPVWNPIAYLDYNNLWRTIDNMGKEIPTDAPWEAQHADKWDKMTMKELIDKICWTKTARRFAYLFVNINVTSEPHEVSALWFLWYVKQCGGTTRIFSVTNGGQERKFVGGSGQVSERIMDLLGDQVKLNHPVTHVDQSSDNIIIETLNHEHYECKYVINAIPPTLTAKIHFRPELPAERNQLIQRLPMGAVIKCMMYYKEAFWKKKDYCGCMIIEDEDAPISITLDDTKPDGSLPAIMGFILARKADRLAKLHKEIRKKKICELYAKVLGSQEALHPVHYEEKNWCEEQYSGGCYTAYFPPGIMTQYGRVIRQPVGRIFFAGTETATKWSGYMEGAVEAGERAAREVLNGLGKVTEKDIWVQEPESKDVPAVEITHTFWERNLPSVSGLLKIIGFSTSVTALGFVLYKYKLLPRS

[2] = target: T2, Amine oxidase [flavin-containing] B (Homo sapiens, UniProt P27338); test: Inhibition of recombinant human MAO-B expressed in Sf9 cells using p-tyramine as substrate preincubated for 15 mins followed by substrate addition and measured after 60 mins by luciferin based luminescence analysis
T2 sequence (P27338 whole entry): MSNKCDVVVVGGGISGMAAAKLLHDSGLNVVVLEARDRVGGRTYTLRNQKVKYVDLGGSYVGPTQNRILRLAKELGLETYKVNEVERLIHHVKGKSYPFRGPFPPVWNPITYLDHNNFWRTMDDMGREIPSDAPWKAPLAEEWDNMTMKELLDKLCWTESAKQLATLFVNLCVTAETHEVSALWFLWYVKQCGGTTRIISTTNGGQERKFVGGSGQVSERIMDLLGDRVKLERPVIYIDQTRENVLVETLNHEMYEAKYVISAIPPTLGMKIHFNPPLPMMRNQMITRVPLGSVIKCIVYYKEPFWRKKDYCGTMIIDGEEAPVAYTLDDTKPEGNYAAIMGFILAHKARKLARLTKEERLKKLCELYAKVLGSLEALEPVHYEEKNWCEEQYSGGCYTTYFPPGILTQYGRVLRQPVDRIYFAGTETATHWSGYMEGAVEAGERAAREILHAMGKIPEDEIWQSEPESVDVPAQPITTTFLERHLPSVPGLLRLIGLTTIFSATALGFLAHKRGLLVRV

[3] = Cmax in fasted Sprague-Dawley rat at 5 mg/kg, IG measured for 24 hrs; type: ADME, organism-based; set-up: dose 5 mg/kg, time 24 hrs, route ig; conditions: in vivo, po
[4] = Drug concentration in Sprague-Dawley rat brain at 5 mg/kg, ip measured after 15 mins by LC-MS/MS analysis; type: ADME, organism-based; conditions: read-out: Ct
[5] = Elimination half life in fasted Sprague-Dawley rat at 1 mg/kg, iv measured for 24 hrs; type: ADME, organism-based; conditions: in vivo, read-out: beta t1/2 (converted)
[6] = Bioavailability in fasted Sprague-Dawley rat at 5 mg/kg, IG measured for 24 hrs; type: ADME, organism-based; conditions: in vivo, po
[7] = Bioavailability in fasted ICR mouse at 5 mg/kg, IG measured for 24 hrs; type: ADME, organism-based; conditions: in vivo, po
[8] = Metabolic stability in human liver microsomes assessed as half life at 1 uM incubated for 60 mins in presence of NADPH by LC-MS/MS analysis; type: ADME, Microsome
[9] = Metabolic stability in human liver microsomes assessed as intrinsic clearance at 1 uM incubated for 60 mins in presence of NADPH by LC-MS/MS analysis; type: ADME, Microsome; conditions: read-out: CLH
[10] = Ratio of drug concentration in Sprague-Dawley brain to plasma at 5 mg/kg, ip measured after 60 mins by LC-MS/MS analysis; type: ADME, organism-based; conditions: rat, read-out: BPR
[11] = AUC (0 to t) in fasted ICR mouse at 2 mg/kg, iv measured for 24 hrs; type: ADME, organism-based; set-up: dose 2 mg/kg, time 24 hrs, route iv; conditions: in vivo
[12] = AUC (0 to t) in fasted Sprague-Dawley rat at 5 mg/kg, IG measured for 24 hrs; type: ADME, organism-based; set-up: dose 5 mg/kg, time 24 hrs, route ig; conditions: in vivo, po
[13] = Metabolic stability in mouse liver microsomes assessed as half life at 1 uM incubated for 60 mins in presence of NADPH by LC-MS/MS analysis; type: ADME, Microsome
[14] = Metabolic stability in dog liver microsomes assessed as half life at 1 uM incubated for 60 mins in presence of NADPH by LC-MS/MS analysis; type: ADME, Canis lupus familiaris, Microsome
[15] = Drug concentration in Sprague-Dawley rat plasma at 5 mg/kg, ip measured after 120 mins by LC-MS/MS analysis; type: ADME, organism-based
[16] = Drug concentration in Sprague-Dawley rat plasma at 5 mg/kg, ip measured after 15 mins by LC-MS/MS analysis; type: ADME, organism-based
[17] = Volume of distribution at steady state in fasted ICR mouse at 2 mg/kg, iv measured for 24 hrs; type: ADME, organism-based; conditions: in vivo, read-out: Vdss
[18] = Clearance in fasted ICR mouse at 2 mg/kg, iv measured for 24 hrs; type: ADME, organism-based; conditions: in vivo
[19] = AUC (0 to t) in fasted ICR mouse at 5 mg/kg, IG measured for 24 hrs; type: ADME, organism-based; set-up: dose 5 mg/kg, time 24 hrs, route ig; conditions: in vivo, po
[20] = Elimination half life in fasted ICR mouse at 5 mg/kg, IG measured for 24 hrs; type: ADME, organism-based; conditions: in vivo, po, read-out: beta t1/2 (converted)
[21] = Elimination half life in fasted Sprague-Dawley rat at 5 mg/kg, IG measured for 24 hrs; type: ADME, organism-based; conditions: in vivo, po, read-out: beta t1/2 (converted)
[22] = Drug concentration in Sprague-Dawley rat plasma at 5 mg/kg, ip measured after 60 mins by LC-MS/MS analysis; type: ADME, organism-based
[23] = Ratio of drug concentration in Sprague-Dawley brain to plasma at 5 mg/kg, ip measured after 15 mins by LC-MS/MS analysis; type: ADME, organism-based; conditions: rat, read-out: BPR
[24] = Elimination half life in fasted ICR mouse at 2 mg/kg, iv measured for 24 hrs; type: ADME, organism-based; conditions: in vivo, read-out: beta t1/2 (converted)
[25] = Cmax in fasted ICR mouse at 5 mg/kg, IG measured for 24 hrs; type: ADME, organism-based; set-up: dose 5 mg/kg, time 24 hrs, route ig; conditions: in vivo, po
[26] = Clearance in fasted Sprague-Dawley rat at 1 mg/kg, iv measured for 24 hrs; type: ADME, organism-based; conditions: in vivo
[27] = Drug concentration in Sprague-Dawley rat brain at 5 mg/kg, ip measured after 60 mins by LC-MS/MS analysis; type: ADME, organism-based; conditions: read-out: Ct
[28] = Metabolic stability in dog liver microsomes assessed as intrinsic clearance at 1 uM incubated for 60 mins in presence of NADPH by LC-MS/MS analysis; type: ADME, Canis lupus familiaris, Microsome; conditions: read-out: CLH
[29] = Metabolic stability in mouse liver microsomes assessed as intrinsic clearance at 1 uM incubated for 60 mins in presence of NADPH by LC-MS/MS analysis; type: ADME, Microsome; conditions: read-out: CLH
[30] = Ratio of drug concentration in Sprague-Dawley brain to plasma at 5 mg/kg, ip measured after 120 mins by LC-MS/MS analysis; type: ADME, organism-based; conditions: rat, read-out: BPR
[31] = Drug concentration in Sprague-Dawley rat brain at 5 mg/kg, ip measured after 120 mins by LC-MS/MS analysis; type: ADME, organism-based; conditions: read-out: Ct
[32] = AUC (0 to t) in fasted Sprague-Dawley rat at 1 mg/kg, iv measured for 24 hrs; type: ADME, organism-based; set-up: dose 1 mg/kg, time 24 hrs, route iv; conditions: in vivo
[33] = Metabolic stability in rat liver microsomes assessed as intrinsic clearance at 1 uM incubated for 60 mins in presence of NADPH by LC-MS/MS analysis; type: ADME, Microsome; conditions: read-out: CLH
[34] = Cmax in fasted Sprague-Dawley rat at 1 mg/kg, iv measured for 24 hrs; type: ADME, organism-based; set-up: dose 1 mg/kg, time 24 hrs, route iv; conditions: in vivo
[35] = Metabolic stability in rat liver microsomes assessed as half life at 1 uM incubated for 60 mins in presence of NADPH by LC-MS/MS analysis; type: ADME, Microsome
[36] = Volume of distribution at steady state in fasted Sprague-Dawley rat at 1 mg/kg, iv measured for 24 hrs; type: ADME, organism-based; conditions: in vivo, read-out: Vdss
[37] = Cmax in fasted ICR mouse at 2 mg/kg, iv measured for 24 hrs; type: ADME, organism-based; set-up: time 24 hrs, dose 2 mg/kg, route iv; conditions: in vivo

In the case of COc1ccc(-c2cc3cc(CN[C@@H](C)C(N)=O)ccc3o2)cc1, the IC50 [1] is reported as 2.78 µM and the IC50 [2] is reported as > 10 µM.
Work on C[C@H](NCc1ccc(OCc2cccc(F)c2)cc1)C(N)=O [SAFINAMIDE] yielded a Cmax [3] of 148 ng/mL, a concentration at 0.25 h [4] of 3960 ng/g and a half-life [5] of 1.18 h. For the same compound, the bioavailability [6] was 48.5%, the bioavailability [7] was 129% and the half-life at 1 µM [8] was 8.94 h. For the same compound, the CLint scaled at 1 µM [9] was 2.8 mL/min/kg, the Kp at 1 h [10] was 14.4 and the AUC(0-t) at 24 h [11] was 930 ng·h/mL. It also gave an AUC(0-t) at 24 h [12] of 536 ng·h/mL, a half-life at 1 µM [13] of 1.1 h and a half-life at 1 µM [14] of 1.1 h. It also gave a concentration at 2 h [15] of 144 ng/mL, a concentration at 0.25 h [16] of 371 ng/mL and a Vd [17] of 4.53 L/kg. For the same compound, the clearance [18] was 34.7 mL/min/kg, the AUC(0-t) at 24 h [19] was 3050 ng·h/mL and the half-life [20] was 2.78 h. For the same compound, the half-life [21] was 2.62 h, the concentration at 1 h [22] was 353 ng/mL and the Kp at 0.25 h [23] was 10.7. It also gave a half-life [24] of 1.59 h, a Cmax [25] of 755 ng/mL and a clearance [26] of 70.6 mL/min/kg. The concentration at 1 h [27] was 5100 ng/g, the CLint scaled at 1 µM [28] was 43.2 mL/min/kg and the CLint scaled at 1 µM [29] was 43.2 mL/min/kg. It also gave a Kp at 2 h [30] of 15.1, a concentration at 2 h [31] of 2170 ng/g and an AUC(0-t) at 24 h [32] of 233 ng·h/mL. For the same compound, the CLint scaled at 1 µM [33] was 38.3 mL/min/kg, the Cmax ([34]; Sprague-Dawley, read-out: Cmax) was 244 ng/mL and the half-life at 1 µM [35] was 0.331 h. It also gave a Vd [36] of 5.26 L/kg and a Cmax [37] of 429 ng/mL.
In the case of NC(=O)[C@@H]1CC(F)(F)CN1Cc1ccc2oc(-c3ccc(F)cc3)cc2c1, the IC50 [1] is reported as > 10 µM and the IC50 [2] is reported as 0.833 µM.
C[C@H](NCc1ccc2oc(-c3ccc(F)cc3)cc2c1)C(N)=O gave an IC50 [1] of 3.54 µM and an IC50 [2] of 0.948 µM.
For NC(=O)[C@@H]1CCN1Cc1ccc2oc(-c3ccccc3F)cc2c1, the Cmax [3] was 167 ng/mL, the half-life [5] was 0.374 h and the bioavailability [6] was 86.7%. For the same compound, the AUC(0-t) at 24 h [12] was 672 ng·h/mL, the half-life [21] was 1.15 h and the clearance [26] was 106 mL/min/kg. For the same compound, the IC50 [1] was > 10 µM, the AUC(0-t) at 24 h [32] was 155 ng·h/mL and the IC50 [2] was 0.073 µM. For the same compound, the Cmax ([34]; Sprague-Dawley, read-out: Cmax) was 360 ng/mL and the Vd [36] was 2.39 L/kg.
For NC(=O)[C@@H]1C[C@H](F)CN1Cc1ccc(OCc2cccc(F)c2)cc1, the Cmax [3] was 690 ng/mL, the bioavailability [7] was 77.4% and the AUC(0-t) at 24 h [11] was 561 ng·h/mL. It also gave a Vd [17] of 2.6 L/kg, a clearance [18] of 63.3 mL/min/kg and an AUC(0-t) at 24 h [19] of 1080 ng·h/mL. It also gave a half-life [20] of 0.78 h, a half-life [24] of 0.55 h and a Cmax [25] of 833 ng/mL. It also gave a Cmax ([34]; 24 h) of 69.1 ng/mL and a Cmax [37] of 613 ng/mL.
For COc1cccc(-c2cc3cc(CN4CC[C@H]4C(N)=O)ccc3o2)c1, the IC50 [1] was > 10 µM and the IC50 [2] was 0.103 µM.
Compound COc1ccccc1-c1cc2cc(CN[C@@H](C)C(N)=O)ccc2o1 has an IC50 [1] of 6.21 µM and an IC50 [2] of 9.49 µM.
